Reference: ChEMBL document CHEMBL3526057 (Drug Metab Dispos, 2011)

Tests used:
Format in all cases: ADME
Cytochrome P450 2C19 [1] = molecular target: Cytochrome P450 2C19 (Homo sapiens, UniProt P33261, A161P); experiment: Activity of human recombinant CYP2C19 A161P mutant expressed in Saccharomyces cerevisiae BJ5457 assessed asomeprazole 5'-hydroxylation per pmol protein after 60 mins; details: recombinant enzyme, 1 h
Cytochrome P450 2C19 [2] = molecular target: Cytochrome P450 2C19 (Homo sapiens, UniProt P33261, R410C); experiment: Activity of human recombinant CYP2C19.13 mutant expressed in Saccharomyces cerevisiae BJ5457 assessed asomeprazole 5'-hydroxylation per pmol protein after 60 mins; details: recombinant enzyme, 1 h
Cytochrome P450 2C19 [3] = molecular target: T1, Cytochrome P450 2C19 (Homo sapiens, UniProt P33261); experiment: Activity of human recombinant CYP2C19.1A mutant expressed in Saccharomyces cerevisiae BJ5457 assessed as omeprazole 5'-hydroxylation per pmol protein at 100 uM after 60 mins; details: recombinant enzyme, 1 h
Cytochrome P450 2C19 [4] = molecular target: Cytochrome P450 2C19 (Homo sapiens, UniProt P33261, W212C); experiment: Activity of human recombinant CYP2C19 W212C mutant expressed in Saccharomyces cerevisiae BJ5457 assessed asomeprazole 5'-hydroxylation per pmol protein after 60 mins; details: recombinant enzyme, 1 h
Cytochrome P450 2C19 [5] = molecular target: T2, Cytochrome P450 2C19 (Homo sapiens, UniProt P33261, P227L); experiment: Activity of human recombinant CYP2C19.10 mutant expressed in Saccharomyces cerevisiae BJ5457 assessed as omeprazole 5'-hydroxylation per pmol protein at 5 uM after 60 mins; details: recombinant enzyme, 1 h
Cytochrome P450 2C19 [6] = molecular target: T3, Cytochrome P450 2C19 (Homo sapiens, UniProt P33261, E122A); experiment: Activity of human recombinant CYP2C19 E122A mutant expressed in Saccharomyces cerevisiae BJ5457 assessed asomeprazole 5'-hydroxylation per pmol protein after 60 mins; details: recombinant enzyme, 1 h
Cytochrome P450 2C19 [7] = molecular target: Cytochrome P450 2C19 (Homo sapiens, UniProt P33261, S51G); experiment: Activity of human recombinant CYP2C19.19 mutant expressed in Saccharomyces cerevisiae BJ5457 assessed as omeprazole 5'-hydroxylation per pmol protein at 100 uM after 60 mins; details: recombinant enzyme, 1 h
Cytochrome P450 2C19 [8] = molecular target: T4, Cytochrome P450 2C19 (Homo sapiens, UniProt P33261, V331I/R442C); experiment: Activity of human recombinant CYP2C19.16 mutant expressed in Saccharomyces cerevisiae BJ5457 assessed as omeprazole 5'-hydroxylation per pmol protein at 5 uM after 60 mins; details: recombinant enzyme, 1 h
Cytochrome P450 2C19 [9] = molecular target: Cytochrome P450 2C19 (Homo sapiens, UniProt P33261, E92D); experiment: Activity of human recombinant CYP2C19 E92D mutant expressed in Saccharomyces cerevisiae BJ5457 assessed as intrinisic clearance foromeprazole 5'-hydroxylation per pmol protein after 60 mins; details: recombinant enzyme, 1 h
Cytochrome P450 2C19 [10] = molecular target: T5, Cytochrome P450 2C19 (Homo sapiens, UniProt P33261, I19L); experiment: Activity of human recombinant CYP2C19.15 mutant expressed in Saccharomyces cerevisiae BJ5457 assessed asomeprazole 5'-hydroxylation per pmol protein after 60 mins; details: recombinant enzyme, 1 h
Cytochrome P450 2C19 [11] = molecular target: T1, Cytochrome P450 2C19; experiment: Activity of human recombinant CYP2C19.1A mutant expressed in Saccharomyces cerevisiae BJ5457 assessed asomeprazole 5'-hydroxylation after 60 mins; details: recombinant enzyme, 1 h
Cytochrome P450 2C19 [12] = molecular target: T1, Cytochrome P450 2C19; experiment: Activity of human recombinant CYP2C19.1B mutant expressed in Saccharomyces cerevisiae BJ5457 assessed asomeprazole 5'-hydroxylation after 60 mins; details: recombinant enzyme, 1 h
Cytochrome P450 2C19 [13] = molecular target: T6, Cytochrome P450 2C19 (Homo sapiens, UniProt P33261, R150H); experiment: Activity of human recombinant CYP2C19.11 mutant expressed in Saccharomyces cerevisiae BJ5457 assessed as omeprazole 5'-hydroxylation per pmol protein at 100 uM after 60 mins; details: recombinant enzyme, 1 h
Cytochrome P450 2C19 [14] = molecular target: T1, Cytochrome P450 2C19; experiment: Activity of human recombinant CYP2C19.1A mutant expressed in Saccharomyces cerevisiae BJ5457 assessed asomeprazole 5'-hydroxylation per pmol protein after 60 mins; details: recombinant enzyme, 1 h
Cytochrome P450 2C19 [15] = molecular target: T7, Cytochrome P450 2C19 (Homo sapiens, UniProt P33261, R329H); experiment: Activity of human recombinant CYP2C19.18 mutant expressed in Saccharomyces cerevisiae BJ5457 assessed as intrinisic clearance foromeprazole 5'-hydroxylation per pmol protein after 60 mins; details: recombinant enzyme, 1 h
Cytochrome P450 2C19 [16] = molecular target: T2, Cytochrome P450 2C19; experiment: Activity of human recombinant CYP2C19.10 mutant expressed in Saccharomyces cerevisiae BJ5457 assessed asomeprazole 5'-hydroxylation after 60 mins; details: recombinant enzyme, 1 h
Cytochrome P450 2C19 [17] = molecular target: T5, Cytochrome P450 2C19; experiment: Activity of human recombinant CYP2C19.15 mutant expressed in Saccharomyces cerevisiae BJ5457 assessed asomeprazole 5'-hydroxylation after 60 mins; details: recombinant enzyme, 1 h
Cytochrome P450 2C19 [18] = molecular target: T1, Cytochrome P450 2C19; experiment: Activity of human recombinant CYP2C19.1A mutant expressed in Saccharomyces cerevisiae BJ5457 assessed as intrinisic clearance foromeprazole 5'-hydroxylation per pmol protein after 60 mins; details: recombinant enzyme, 1 h
Cytochrome P450 2C19 [19] = molecular target: Cytochrome P450 2C19 (Homo sapiens, UniProt P33261, R144H); experiment: Activity of human recombinant CYP2C19.9 mutant expressed in Saccharomyces cerevisiae BJ5457 assessed as omeprazole 5'-hydroxylation per pmol protein at 100 uM after 60 mins; details: recombinant enzyme, 1 h
Cytochrome P450 2C19 [20] = molecular target: T6, Cytochrome P450 2C19; experiment: Activity of human recombinant CYP2C19.11 mutant expressed in Saccharomyces cerevisiae BJ5457 assessed as intrinisic clearance foromeprazole 5'-hydroxylation per pmol protein after 60 mins; details: recombinant enzyme, 1 h
[21] = Activity of human recombinant CYP2C19.6 mutant expressed in Saccharomyces cerevisiae BJ5457 assessed as omeprazole 5'-hydroxylation per pmol protein at 100 uM after 60 mins; details: recombinant enzyme, 1 h
[22] = Activity of human recombinant CYP2C19.6 mutant expressed in Saccharomyces cerevisiae BJ5457 assessed as omeprazole 5'-hydroxylation per pmol protein at 5 uM after 60 mins; details: recombinant enzyme, 1 h
Cytochrome P450 2C19 [23] = molecular target: T7, Cytochrome P450 2C19; experiment: Activity of human recombinant CYP2C19.18 mutant expressed in Saccharomyces cerevisiae BJ5457 assessed as omeprazole 5'-hydroxylation per pmol protein at 100 uM after 60 mins; details: recombinant enzyme, 1 h
Cytochrome P450 2C19 [24] = molecular target: Cytochrome P450 2C19 (Homo sapiens, UniProt P33261, F168L); experiment: Activity of human recombinant CYP2C19 F168L mutant expressed in Saccharomyces cerevisiae BJ5457 assessed asomeprazole 5'-hydroxylation per pmol protein after 60 mins; details: recombinant enzyme, 1 h
Cytochrome P450 2C19 [25] = molecular target: T7, Cytochrome P450 2C19; experiment: Activity of human recombinant CYP2C19.18 mutant expressed in Saccharomyces cerevisiae BJ5457 assessed as omeprazole 5'-hydroxylation per pmol protein at 5 uM after 60 mins; details: recombinant enzyme, 1 h
Cytochrome P450 2C19 [26] = molecular target: Cytochrome P450 2C19 (Homo sapiens, UniProt P33261, D360N); experiment: Activity of human recombinant CYP2C19 D360N mutant expressed in Saccharomyces cerevisiae BJ5457 assessed as intrinisic clearance foromeprazole 5'-hydroxylation per pmol protein after 60 mins; details: recombinant enzyme, 1 h
Cytochrome P450 2C19 [27] = molecular target: T6, Cytochrome P450 2C19; experiment: Activity of human recombinant CYP2C19.11 mutant expressed in Saccharomyces cerevisiae BJ5457 assessed as omeprazole 5'-hydroxylation per pmol protein at 5 uM after 60 mins; details: recombinant enzyme, 1 h
Cytochrome P450 2C19 [28] = molecular target: T3, Cytochrome P450 2C19; experiment: Activity of human recombinant CYP2C19 E122A mutant expressed in Saccharomyces cerevisiae BJ5457 assessed as intrinisic clearance foromeprazole 5'-hydroxylation per pmol protein after 60 mins; details: recombinant enzyme, 1 h
Cytochrome P450 2C19 [29] = molecular target: T1, Cytochrome P450 2C19; experiment: Activity of human recombinant CYP2C19.8 mutant expressed in Saccharomyces cerevisiae BJ5457 assessed as omeprazole 5'-hydroxylation per pmol protein at 100 uM after 60 mins; details: recombinant enzyme, 1 h
[30] = molecular target: CYP2C19.19 (CYP2C19 variant) (Homo sapiens, UniProt P33261, S51G); experiment: Activity of human recombinant CYP2C19.19 mutant expressed in Saccharomyces cerevisiae BJ5457 assessed asomeprazole 5'-hydroxylation after 60 mins; details: probe omeprazole (5'-hydroxylation)
Cytochrome P450 2C19 [31] = molecular target: T4, Cytochrome P450 2C19; experiment: Activity of human recombinant CYP2C19.16 mutant expressed in Saccharomyces cerevisiae BJ5457 assessed as omeprazole 5'-hydroxylation per pmol protein at 100 uM after 60 mins; details: recombinant enzyme, 1 h

- Vmax (Cytochrome P450 2C19 [1]): 1.61 pmol/min
- Vmax (Cytochrome P450 2C19 [2]): 7.83 pmol/min
- Drug metabolism (Cytochrome P450 2C19 [3]): 5.87 pmol/min
- Vmax (Cytochrome P450 2C19 [4]): 2.04 pmol/min
- Drug metabolism (Cytochrome P450 2C19 [5]): 1.94 pmol/min
- Vmax (Cytochrome P450 2C19 [6]): 4.89 pmol/min
- Drug metabolism (Cytochrome P450 2C19 [7]): 8.65 pmol/min
- Drug metabolism (Cytochrome P450 2C19 [8]): 0.65 pmol/min
- CL (Cytochrome P450 2C19 [9]): 0.79 µL/min
- Vmax (Cytochrome P450 2C19 [10]): 8.18 pmol/min
- Km (Cytochrome P450 2C19 [11]): 5.42 µM
- Km (Cytochrome P450 2C19 [12]): 4.16 µM
- Drug metabolism (Cytochrome P450 2C19 [13]): 6.38 pmol/min
- Vmax (Cytochrome P450 2C19 [14]): 7.97 pmol/min
- CL (Cytochrome P450 2C19 [15]): 1.3 µL/min
- Km (Cytochrome P450 2C19 [16]): 10.6 µM
- Km (Cytochrome P450 2C19 [17]): 6.78 µM
- CL (Cytochrome P450 2C19 [18]): 1.49 µL/min
- Drug metabolism (Cytochrome P450 2C19 [19]): 5.48 pmol/min
- CL (Cytochrome P450 2C19 [20]): 1.68 µL/min
- Drug metabolism [21]: metabolite_not_detected
- Drug metabolism [22]: metabolite_not_detected
- Drug metabolism (Cytochrome P450 2C19 [23]): 4.83 pmol/min
- Vmax (Cytochrome P450 2C19 [24]): 6.05 pmol/min
- Drug metabolism (Cytochrome P450 2C19 [25]): 2.21 pmol/min
- CL (Cytochrome P450 2C19 [26]): 0.53 µL/min
- Drug metabolism (Cytochrome P450 2C19 [27]): 2.84 pmol/min
- CL (Cytochrome P450 2C19 [28]): 0.4 µL/min
- Drug metabolism (Cytochrome P450 2C19 [29]): 0.72 pmol/min
- Km at 1 h [30]: 14.5 µM
- Drug metabolism (Cytochrome P450 2C19 [31]): 1.41 pmol/min
SMILES: COc1ccc2[nH]c([S+]([O-])Cc3ncc(C)c(OC)c3C)nc2c1 (stereo unspecified) [OMEPRAZOLE]
